The values below come from patent US7323479B2, “Methods for treatment and management of brain cancer using 1-oxo-2-(2,6-dioxopiperidin-3-yl)-4-methylisoindoline” (Celgene Corporation, priority 2002, dated 2008).

The nature of data set [1]: Pharmacokinetics of Actimid in relapsed/refractory multiple myeloma patients. The class given is in vivo, human. The note with it: for AUC: AUC(0-τ); for Vd/F: Vz/f; for half-life: t½. On the procedure:
4-(Amino)-2-(2,6-dioxo(3-piperidyl))-isoindoline-1,3-dione (Actimid™) was administered to patients with relapsed/refractory multiple myeloma. The study was conducted in compliance with Good Clinical Practices. Patients were at least 18 years old, had been diagnosed with multiple myeloma (with paraprotein in serum and/or urine), and were considered refractory to treatment after at least two cycles of treatment, or have relapsed after two cycles of treatment.
4-(Amino)-2-(2,6-dioxo(3-piperidyl))-isoindoline-1,3-dione is administered to patients at doses of 1, 2, 5, or 10 mg/day for up to four weeks; at each dose level, three patients are initially enrolled. Dosing occurs at approximately the same time each morning; all doses are administered in the fasted state (no eating for at least two hours prior to dosing and two hours after dosing). 4-(Amino)-2-(2,6-dioxo(3-piperidyl))-isoindoline-1,3-dione doses are administered in an ascending fashion such that patients in the first cohort receive the lowest dose of 4-(amino)-2-(2,6-dioxo(3-piperidyl))-isoindoline-1,3-dione (1 mg/day) and escalation to the next higher dose level occurs only following the establishment of safety and tolerability at the current dose. If one out of three patients at any dose level experience dose limiting toxicity (DLT), three additional patients are enrolled at that dose. If none of the three additional patients experience DLT, escalation to the next dose level occurs; dose escalations continue in a similar fashion until the MTD is established or the maximum daily dose (10 mg/day) is attained. However, if one of the three additional patients enrolled experiences DLT, the MTD has been reached. If two or more of the three additional patients enrolled experience DLT, the MTD is judged to have been exceeded and three additional patients are enrolled at the preceding dose level to confirm the MTD. Once the MTD has been identified, four additional patients are enrolled at that dose level so that a total of 10 patients is treated at the MTD.
Blood sampling for analysis of pharmacokinetic parameters is performed on Days 1 and 28 according to the following sampling schedule: pre-dose, 0.25, 0.5, 0.75, 1, 1.5, 2, 2.5, 3, 4, 6, 8, 10, 12, 18, and 24 hours post-dose. An additional blood sample is collected at each weekly visit for the determination of 4-(amino)-2-(2,6-dioxo(3-piperidyl))-isoindoline-1,3-dione levels. Total urine collections are also made with urine pooled according to the following time intervals post-dose: 0 to 4, 4 to 8, 8 to 12, and 12 to 24 hours. Safety assessments are made by monitoring adverse events, vital signs, ECGs, clinical laboratory evaluations (blood chemistry, hematology, lymphocyte phenotyping, and urinalysis), and physical examination at specific times during the study.

The nature of data set [2]: Cardiovascular and respiratory function in anesthetized dogs. The class given is in vivo, Beagle dogs. An excerpt:
Two groups of Beagle dogs (2/sex/group) are used.

In another data set the test system is TNF-α, IL-1β, and IL-6. In words: LPS-stimulated production of pro-inflammatory cytokines by PBMC. The class given is cell-based.
The test system of a further data set is metastatic melanoma. In words: Treatment of patients with metastatic melanoma. The class given is in vivo, human. As for the experimental part:
The dose was then increased every seven days to 10 mg/day, 25 mg/day, and 50 mg/day, respectively, for a total of four weeks on therapy.

Data set [3] can be described thus: Phase 1 study of Revimid in patients with solid tumors: dose limiting toxicity. The class given is in vivo. The note with it: initial group of 20 patients, 5 escalated to 50 mg/day over 4 weeks. On the procedure:
Patients who, experienced clinical benefit were permitted to continue on treatment as Named Patients.
The study design dictates that at least 3 patients must be enrolled at a dose level and have completed 28 days of treatment prior to enrollment of patients at the next higher dose level. Patients in the first cohort began dosing at 5 mg/day of 3-(4-amino-1′-oxo-1,3-dihydro-isoindol-2-yl)-piperidine-2,6-dione. […]
If, at any given dose level in either study, one out of three patients experiences toxicity, three additional patients must be treated at that particular dose. If, however, two out of six patients experience DLT, the MTD is judged to have been exceeded. No further dose escalations are to occur and additional patients are to be enrolled at the previous dose level.

The nature of data set [4]: Phase 1 studies of Revimid in refractory or relapsed multiple myeloma: dose limiting toxicity. The class given is in vivo. As for the experimental part: (§1) Patients were evaluated for adverse events at each visit and the severity of these events was graded according to the National Cancer Institute (NCI) Common Toxicity Criteria. Patients were discontinued if they experienced DLT (Grade 3 or greater non-hematological, or Grade 4 hematological toxicity).

The subject of a further data set is IL-2 and IFN-γ. As to the kind of experiment: Augmentation of IL-2 and IFN-γ production following TCR activation of PBMC (IL-2) or T-cells (IFN-γ). The class given is cell-based.
The nature of data set [5]: Phase 1 studies of Revimid in refractory or relapsed multiple myeloma: pharmacokinetics. The class given is in vivo. On the procedure: as §1
Blood and urine samples were collected for analysis of pharmacokinetic parameters on Days 1 and 28. Blood samples were collected according to the following sampling schedule: pre-dose, 0.25, 0.5, 0.75, 1, 1.5, 2, 2.5, 3, 4, 6, 8, 10, 12, 18, and 24 hours post-dose. In addition, a blood sample was collected at each weekly clinic visit for 3-(4-amino-1-oxo-1,3-dihydro-isoindol-2-yl)-piperidine-2,6-dione determination. Total urine was collected and pooled according to the following time intervals post-dose: 0 to 4, 4 to 8, 8 to 12, and 12 to 24 hours. […] Bone marrow aspirations and/or tissue biopsy are also performed at Months 3, 6 and 12 if a patient's paraprotein serum concentration or 24-hour urine protein excretion declined to the next lower level, based on best response criteria.

For another data set, the system named is IL-10. In words: LPS-stimulated production of anti-inflammatory cytokine IL-10 by PBMC. The class given is cell-based.
Where [6] appears, read: multiple myeloma patients, preliminary.

The structures appear in SMILES notation.

One may read the AUC(0-inf) as the area under the concentration-time curve extrapolated to infinity. The term AUC denotes the area under the concentration-time curve, a measure of exposure. Read a high AUC as more exposure. Broadly, the Cmax is the highest concentration seen after dosing. Broadly, the Vd/F is the volume of distribution divided by bioavailability. What is called Tmax is the time from dosing to the highest level. By half-life is commonly meant the time in which the quantity being followed falls by half. Read a high half-life as slow loss. Regarding `Nc1cccc2c1C(=O)N(C1CCC(=O)NC1=O)C2=O` (stereo not drawn) [Actimid, 4-(Amino)-2-(2,6-dioxo(3-piperidyl))-isoindoline-1,3-dione], the “increase in AUC(0-τ) with 5-fold increase in dose” value in [1] (Day 1) was 3.6 fold; in [1] (Week 4) it was 2.3 fold. Moreover, the “increase in Cmax with five-fold higher dose” value in data set [1] (Day 1) is reported as 3.2 fold; in data set [1] (Week 4), 2.2 fold. For the same compound, in data set [1] (human, in vivo), the “decline of plasma concentrations after reaching Cmax” value is listed as “declined in a monophasic manner”. Also, the “increase in AUC(0-τ) and Cmax values with increasing dose” value in data set [1] (human, in vivo) is listed as “almost a dose proportional increase”. Also, the AUC(0-inf) in data set [1] (human, in vivo, 1 mg) is 153 ng·h/mL; in data set [1] (human, in vivo, 2 mg), 279 ng·h/mL; in data set [1] (human, in vivo, 5 mg), 593 ng·h/mL. Besides, the AUC was 134 ng·h/mL in data set [1] (human, in vivo, 1 mg); 250 ng·h/mL in data set [1] (human, in vivo, 2 mg); 521 ng·h/mL in [1] (human, in vivo, 5 mg). Besides, the Cmax in data set [1] (human, in vivo, 1 mg) came out at 15 ng/mL; in data set [1] (human, in vivo, 2 mg), 24.4 ng/mL; in data set [1] (human, in vivo, 5 mg), 48.6 ng/mL. Besides, the Vd/F worked out at 69.5 L in data set [1] (human, in vivo, 1 mg); 65.3 L in data set [1] (human, in vivo, 2 mg); 87.2 L in data set [1] (human, in vivo, 5 mg). In addition, the time to peak (Tmax) is 3.3 h in data set [1] (human, in vivo, 1 mg, tmax); 2.7 h in data set [1] (human, in vivo, 2 mg, tmax); 2.3 h in data set [1] (human, in vivo, 5 mg, tmax); 2.5 to 2.8 h in data set [1] (human, in vivo, median Tmax); 3.6 h in data set [1] (human, in vivo, po, tmax). The half-life in [1] (human, in vivo, 1 mg) was 7.3 h; in data set [1] (human, in vivo, 2 mg), 6.3 h; in [1] (human, in vivo, 5 mg), 6.5 h; in [1] (human, in vivo, po) it was 6.2 h.

For the compound `Nc1cccc2c1CN(C1CCC(=O)NC1=O)C2=O` (stereo not drawn) [Revimid, 3-(4-amino-1-oxo-1,3-dihydro-isoindol-2-yl)-piperidine-2,6-dione], the “cardiovascular and respiratory changes compared to the vehicle control group” value in data set [2] (anesthetized dogs, 2, 10, and 20 mg/kg, infusion through the jugular vein, all doses) is listed as “minimal”. Besides, the “deviations in femoral blood flow, respiratory parameters, and Qtc interval” value in [2] (common to both the control and treated groups) is “not considered treatment-related”. Also, the “duration of the arterial blood pressure effect” value in data set [2] (low dose) was “approximately 15 minutes”. For the same compound, the “arterial blood pressure after small increase” value in data set [2] (low dose, increase from 94 mmHg, not seen at higher doses) is 101 mmHg. Also, the “effect on LPS-stimulated production of TNF-α, IL-1β, and IL-6” value in the data set with TNF-α, IL-1β, and IL-6 is “dose-dependent inhibition”. The “patients showing disease stabilization or a partial response” value in the data set on metastatic melanoma (first four weeks of treatment, 5 escalated to 50 mg/day) is given as “Five of the 13”. In the data set on metastatic melanoma (metastatic melanoma patients), the duration of response result is “approximately six months”; the “tumor response seen in cutaneous and subcutaneous lesions” value is “five”; the “tumor response seen in liver” value was “one”; the “tumor response seen in lymph nodes” value is “two”. For the same compound, the DLTs reported entry in data set [3] was “No DLTs”. Also, the “dose limiting toxicity (DLT)” value in data set [4] (first cohort of 3 patients, 5 mg/day, 28 days) is on record as “without any dose limiting toxicity”. Besides, the tolerability result in [4] (second cohort of 3 patients, 10 mg/day) was “tolerated treatment well”. Moreover, the “times more potent than thalidomide in augmenting the production of IL-2 and IFN-γ” value with IL-2 and IFN-γ was 50-100 times. In addition, in [5] (human, in vivo), the “half-live in patients, mean” value was 8 h and the “half-live in patients, ranging up to” value is given as “up to 17 hours”. For the same compound, in [5] (in vivo), the “accumulation with multiple dosing” value was “no evidence of accumulation” and the “shape of concentration profile” value is listed as “double peaks were observed”. Further, in data set [5] (setting [6]), the “clearance compared to healthy volunteers” value is “lower”; the “exposure (Cmax and AUC) compared to healthy male volunteers” value is “slightly higher”. For the same compound, the “effect on production of IL-10” value in the data set on IL-10 is recorded as “increased production”.
